Measured values: PMC2607046 (Journal of medicinal chemistry, 2008)

Experiments:
dopamine D3 receptor = dopamine D3 receptor (Rattus norvegicus, UniProt P19020); assay type: binding
dopamine D2L receptor = dopamine D2L receptor (Rattus norvegicus, UniProt P61169); assay type: binding
[1] = 35c (spacer length 4) relative to 35a (spacer length 2)

dopamine D3 receptor, sequence (P19020 whole entry): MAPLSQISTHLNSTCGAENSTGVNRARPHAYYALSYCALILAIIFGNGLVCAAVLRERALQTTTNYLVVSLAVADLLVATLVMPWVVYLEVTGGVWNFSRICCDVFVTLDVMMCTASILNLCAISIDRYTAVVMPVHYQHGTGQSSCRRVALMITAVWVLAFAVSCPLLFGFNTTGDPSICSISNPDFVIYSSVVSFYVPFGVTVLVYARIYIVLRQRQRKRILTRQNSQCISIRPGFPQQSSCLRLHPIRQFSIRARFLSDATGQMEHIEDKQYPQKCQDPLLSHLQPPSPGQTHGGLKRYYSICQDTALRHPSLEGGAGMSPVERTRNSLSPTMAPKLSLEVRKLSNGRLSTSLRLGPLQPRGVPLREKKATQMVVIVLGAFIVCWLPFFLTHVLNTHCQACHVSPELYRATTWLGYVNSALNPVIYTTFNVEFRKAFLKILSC
dopamine D2L receptor, sequence (P61169 whole entry): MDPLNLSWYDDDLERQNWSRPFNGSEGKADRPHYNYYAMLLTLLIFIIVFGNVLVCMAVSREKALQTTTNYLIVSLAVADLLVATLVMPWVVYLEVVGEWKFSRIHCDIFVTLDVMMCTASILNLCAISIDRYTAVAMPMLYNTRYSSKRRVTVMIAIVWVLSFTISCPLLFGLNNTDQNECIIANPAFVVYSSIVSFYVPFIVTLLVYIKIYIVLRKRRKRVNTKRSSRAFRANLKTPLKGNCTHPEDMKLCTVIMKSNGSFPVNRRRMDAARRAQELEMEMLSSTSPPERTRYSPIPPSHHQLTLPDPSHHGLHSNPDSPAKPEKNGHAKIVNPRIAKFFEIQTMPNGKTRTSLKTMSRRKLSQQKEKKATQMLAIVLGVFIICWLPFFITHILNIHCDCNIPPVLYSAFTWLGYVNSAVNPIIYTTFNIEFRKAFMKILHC

## Oc1cccc2c1CC[C@H]1[C@H]2CCCN1CCN1CCN(c2ccccc2)CC1 (racemic) [(±)-8, (±)-trans-4-(2-(4-Phenylpiperazin-1-yl)ethyl)-1,2,3,4,4a,5,6,10b-octahydrobenzo[f]-quinolin-7-ol]
Dopamine D3 receptor
  Ki: 14.9 ± 4.3 nM

## Oc1ccc2c(c1)C[C@H]1[C@@H](CCCN1CCCCN1CCN(c3ccccc3)CC1)C2 (racemic) [(±)-35c, (±)-trans-1-[4-(4-Phenylpiperazin-1-yl)butyl]-1,2,3,4,4a,5,10,10a-octahydrobenzo-[g]quinolin-8-ol]
Dopamine D2L receptor; [1]
  gain in affinity for D2 receptor: ~ 9 fold
Dopamine D3 receptor; [1]
  gain in affinity for D3 receptor: ~ 3 fold

## CCCN(CCN1CCN(c2ccccc2)CC1)[C@H]1CCc2c(O)cccc2C1 [(−)-7]
Dopamine D2L receptor; (−)-7 versus its enantiomer (+)-7
  difference in inhibition constants between enantiomers, D2L receptor: ~ 9 fold
